Experimental data taken from patent US4294832A, “Tetrahydroisoquinoline compounds and a pharmaceutical composition thereof” (Tanabe Seiyaku Co., Ltd., priority 1979, dated 1981).
Counter-ions that a name gives are not always drawn.

Assays:
[1] = system: spontaneously hypertensive rats (SHR); assay: Hypotensive activity in SHR (systolic blood pressure, tail plethysmographic technique); type: in vivo, rat; details: 50 mg/kg orally
Protocol: Hypotensive activity in SHR:
A test compound (dose: 50 mg/kg) suspended in an aqueous carboxymethylcellulose solution was administered orally to spontaneously hypertensive rats (SHR) fasted overnight. The systolic blood pressure of the rats was measured by the tail plethysmographic technique (The Journal of Laboratory and Clinical Medicine 78(1971), page 957). The hypotensive activity of the test compound was estimated from the decreased level of blood pressure.

mice = assay: Oral toxicity in mice; type: in vivo, mouse; details: 2 g/kg orally
Protocol: Furthermore, when a test compound was administered orally to spontaneously hypertensive rats, 3(S)-2-[N-ethyl-N-(2-n-butoxycarbonylethyl)carbamoyl]-1,2,3,4-tetrahydroisoquinoline-3-carboxylic acid 1/2 calcium salt at a dose of 50 mg/kg decreased the blood pressure by 24 mm Hg. In addition, the toxicity of the compound (I) is considerably low. For example, when 3(S)-2-[N-ethyl-N-(2-n-butoxycarbonylethyl)carbamoyl]-1,2,3,4-tetrahydroisoquinoline-3-carboxylic acid 1/2 calcium salt was administered orally to mice at a dose of 2 g/kg, no mouse died within 7 days after said administration.

SMILES: CCCCOC(=O)CCN(CC)C(=O)N1Cc2ccccc2C[C@H]1C(=O)O [3(S)-2-[N-ethyl-N-(2-n-butoxycarbonylethyl)carbamoyl]-1,2,3,4-tetrahydroisoquinoline-3-carboxylic acid 1/2 calcium salt]
- Decrease in blood pressure (-Δ mm Hg) ([1]; SHR fasted overnight, systolic): 24 mm Hg
- Duration of action ([1]; hypotensive action, SHR): > 6 h
- mortality within 7 days after administration (mice): no mouse died
